Where two headings read alike, the source gives them in different places.
Columns and labels:
curly-tail mouse embryos = assay: In vitro culture of curly-tail mouse embryos with inositols at 20 μg/ml for 24 hours; assay type: cell-based; settings: for Mean posterior neuropore length / Mean posterior neuropore to crown-rump length ratio: in vitro; for Fold decrease in mean posterior neuropore length: 24 hours of treatment in vitro
Method: In in vitro studies, curly-tail mouse embryos were explanted into culture at 9.5 days after conception, corresponding to the onset of low spinal cord neural tube closure. Inositol additions were made at the start of culture and were maintained throughout the 24 hour culture period. Inositols were maintained at 20 μg/ml. At the end of culture, the embryos were dissected from their extraembryonic membranes, and crown-rump and posterior neuropore lengths were measured as indices of developmental growth, progression and low spinal neural tube closure.

[1] = test system: curly tail mouse fetuses (NTDs characterized by spina bifida); assay: In vivo treatment of pregnant curly-tail mice by subcutaneous minipump, fetuses scored for NTDs; settings: subcutaneous 90 mg/kg/day, four to ten days
Method: (§1) In in vivo studies, pregnant curly-tail female mice were treated with inositols or PBS (control) by either subcutaneous injection or oral gavage. Using inositols at 75 mg/ml injected by subcutaneous minipump at […], a total daily dosage of 90 mg/kg/day was administered. Inositols were administered from gestational day 8.5 through day 18.5, and fetuses were scored for NTDs on days 12.5 and 18.5. For oral dosing, mice were administered via gavage with 400 mg/kg of inositol twice daily on gestational days 8.5 through 10.5, with fetuses scored for NTDs on day 12.5.

[2] = test system: curly tail mouse fetuses (NTDs characterized by spina bifida); assay: In vivo treatment of pregnant curly-tail mice by oral gavage, fetuses scored for NTDs; settings: three days; for Number of fetuses showing NTDs characterized by spina bifida / Percent of treated fetuses showing spina bifida: oral gavage 400 mg/kg twice daily
Method: as §1

[3] = test system: curly tail embryos (posterior neuropore closure); assay type: cell-based, mouse; settings: for Effect on posterior neuropore length: vs PBS-treated controls
Method: (§2) Mice—Curly tail mice are maintained as a homozygous, random-bred stock (Van Straaten, H. W. M. & Copp, A. J., Anat. Embryol. 203, 225-237 (2001)) Experimental litters were generated by timed matings, and the day of finding a copulation plug was designated embryonic day (E) 0.5.
In vitro inositol treatment—E9.5 embryos (17-19 somite stage) were cultured for 24 hours at 38° C. in whole rat serum. Thirty minutes after the start of culture, myo-inositol (Sigma, UK) or D-chiro-inositol (Insmed, Va., USA) was added to the medium (62.5 μl of inositol stock per ml rat serum) to a final concentration of 5, 10, 20 or 50 μg/ml inositol. Control cultures received an equal volume of phosphate buffered saline (PBS). Following culture, embryos were scored for: (i) posterior neuropore length (the distance from the rostral end of the posterior neuropore to the tip of the tail bud), (ii) crown-rump length and (iii) somite number.

[4] = test system: curly tail fetuses (spina bifida and tail flexion defects); assay type: in vivo, mouse; settings: for Likelihood of fetuses being normal vs PBS (ordinal multilevel regression): subcutaneous; for Decrease in spina bifida frequency relative to PBS controls: subcutaneous 72 and 144 μg/g body weight/day
Method: as §2
In utero inositol treatment (subcutaneous administration)—For sub-cutaneous administration, osmotic mini-pumps (capacity 100 μl, delivery rate 1 μl/hour; Model 1003D, Alzet) were filled with solutions of 30, 75 or 150 mg/ml inositol (delivering 29, 72 and 144 μg inositol/g body weight/day respectively for a 25 g mouse), or PBS as a control. Mini-pumps were incubated in sterile PBS at 37° C. for 4 hours and then implanted subcutaneously on the back of pregnant mice at E8.5. General anesthesia was induced by an intra-peritoneal injection of 0.01 ml/g body weight of a solution comprising 10% Hypnovel® (midazolam 5 mg/ml) and 25% Hypnorm® (fentanyl citrate 0.315 mg/ml, fluanisone 10 mg/ml) in sterile distilled water.
(§3) Pregnant females were killed at E18.5, and the total number of implantations, classified as viable fetuses or resorptions, was recorded. Fetuses were dissected from the uterus and inspected immediately for the presence of open lumbo-sacral spina bifida and tail flexion defects: the primary manifestations of the curly tail genetic defect.

[5] = test system: curly tail fetuses (spina bifida and tail flexion defects); assay: In utero inositol treatment, oral dosing by gavage, fetuses inspected at E18.5; assay type: in vivo, mouse; settings: for Curly tail, % of total for treatment group / Curly tail, number of fetuses / No. uterine resorptions / No. viable fetuses / Normal, % of total for treatment group / Normal, number of fetuses / Resorptions as % of total number of implantations / Spina bifida ± curly tail, % of total for treatment group / Spina bifida ± curly tail, number of fetuses / Mean litter size ± SEM: oral 800 μg inositol/g body weight/day; for Mean litter size ± SEM: viable fetuses per litter; for Reduction in the frequency of spina bifida / Effect on frequency of spina bifida among offspring: oral 800 μg/g body weight/day; for Effect on frequency of spina bifida among offspring: E8.5 to E10.5; for Likelihood of fetuses being normal vs PBS (ordinal multilevel regression): oral dosing study
Method: as §2
In utero inositol treatment (oral dosing)—For oral administration, pregnant mice were gavaged with 0.5 ml inositol solution in PBS at 12 hourly intervals from E8.5 to E10.5 (six doses in total; 800 μg/g body weight/day).
as §3

[6] = test system: curly tail mice (spinal NTDs); settings: cultured embryos and offspring of curly tail mice treated during pregnancy; cited from earlier work
[7] = test system: rat fibroblasts expressing the human insulin receptor; settings: cited from earlier work
NTDs = settings: folic acid supplementation in early pregnancy; cited from earlier work
[8] = test system: rats rendered diabetic by streptozotocin; settings: cited from earlier work
[9] = test system: patients with polycystic ovary syndrome; settings: cited from earlier work
[10] = subcutaneous 29 μg inositol/g body weight/day
[11] = subcutaneous 72 μg inositol/g body weight/day
[12] = subcutaneous 144 μg inositol/g body weight/day

## O[C@H]1[C@H](O)[C@@H](O)[C@H](O)[C@@H](O)[C@H]1O [myo-inositol, reference compound]
curly-tail mouse embryos; 20 μg/ml, 24 hours
  Mean posterior neuropore length: 0.601±0.090
  Mean posterior neuropore to crown-rump length ratio: 0.172 ±0.026
curly-tail mouse embryos
  Fold decrease in mean posterior neuropore length: 6 fold
[1]
  Number of fetuses showing NTDs characterized by spina bifida: 4
  Percent of treated fetuses showing spina bifida: 6.3%
[2]
  Number of fetuses showing NTDs characterized by spina bifida: 3
  Percent of treated fetuses showing spina bifida: 8.6%
[3]
  Crown-rump length compared with PBS-treated controls: no significant difference
[3]; 20 μg/ml
  Effect on posterior neuropore length: not different from PBS-treated controls
[3]; 50 μg/ml
  Effect on posterior neuropore length: comparable effect
[4]
  Likelihood of fetuses being normal vs PBS (ordinal multilevel regression): reached statistical significance
  Decrease in spina bifida frequency relative to PBS controls: 54-56%
[4]; [10]
  Curly tail, % of total for treatment group: 41.4%
  Curly tail, number of fetuses: 12
  Normal, % of total for treatment group: 37.9%
  Normal, number of fetuses: 11
  Spina bifida ± curly tail, % of total for treatment group: 20.7%
  Spina bifida ± curly tail, number of fetuses: 6
[4]; [11]
  Curly tail, % of total for treatment group: 55.2%
  Curly tail, number of fetuses: 37
  Normal, % of total for treatment group: 38.8%
  Normal, number of fetuses: 26
  Spina bifida ± curly tail, % of total for treatment group: 6.0%
  Spina bifida ± curly tail, number of fetuses: 4
[4]; [12]
  Curly tail, % of total for treatment group: 55.3%
  Curly tail, number of fetuses: 52
  Normal, % of total for treatment group: 36.2%
  Normal, number of fetuses: 34
  Spina bifida ± curly tail, % of total for treatment group: 8.5%
  Spina bifida ± curly tail, number of fetuses: 8
[5]
  Curly tail, % of total for treatment group: 42.9%
  Curly tail, number of fetuses: 15
  No. uterine resorptions: 3
  No. viable fetuses: 35
  Normal, % of total for treatment group: 48.6%
  Normal, number of fetuses: 17
  Resorptions as % of total number of implantations: 7.9%
  Spina bifida ± curly tail, % of total for treatment group: 8.6%
  Spina bifida ± curly tail, number of fetuses: 3
  Mean litter size ± SEM: 5.83 ± 0.48
  Reduction in the frequency of spina bifida: 53%
  Effect on frequency of spina bifida among offspring: marked reduction in the frequency of spina bifida
  Likelihood of fetuses being normal vs PBS (ordinal multilevel regression): did not differ significantly
[6]
  Effect on incidence of spinal NTDs: significantly reducing the incidence of spinal NTDs
[7]
  Effect of insulin stimulation on incorporation into phospholipids: only marginal

## Nc1nc2ncc(CNc3ccc(C(=O)N[C@@H](CCC(=O)O)C(=O)O)cc3)nc2c(=O)[nH]1 [folic acid]
NTDs
  NTDs that can be prevented: Up to 70%

## OC1C(O)C(O)C(O)C(O)C1O [D-chiro-inositol]
curly-tail mouse embryos; 20 μg/ml, 24 hours
  Mean posterior neuropore length: 0.095±0.055
  Mean posterior neuropore to crown-rump length ratio: .029±.018
curly-tail mouse embryos; 20 μg/ml, 24 hours, compared to control or myo-inositol treated
  Fold decrease in mean posterior neuropore to crown-rump length ratio: 5.6 fold
curly-tail mouse embryos
  Fold decrease in mean posterior neuropore length: 6 fold
[1]
  Fold decrease in number of fetuses with spina bifida compared to control: 9 fold
  Fold decrease in number of fetuses with spina bifida compared to myo-inositol: 4 fold
  Number of fetuses showing NTDs characterized by spina bifida: 1
  Percent of treated fetuses showing spina bifida: 1.7%
[2]
  Number of fetuses showing NTDs characterized by spina bifida: 1
  Percent of treated fetuses showing spina bifida: 2.3%
[2]; oral
  Fold decrease in number of fetuses with spina bifida compared to control: 8 fold
  Fold decrease in number of fetuses with spina bifida compared to myo-inositol: 3 fold
[3]
  Crown-rump length compared with PBS-treated controls: no significant difference
[3]; 20 μg/ml
  Effect on posterior neuropore length: reduced neuropore length
[3]; 50 μg/ml
  Effect on posterior neuropore length: reduced neuropore length
[3]; 5-10 μg/ml
  Effect on posterior neuropore length: not different from PBS-treated controls
[4]
  Likelihood of fetuses being normal vs PBS (ordinal multilevel regression): significantly more likely to be normal
  Decrease in spina bifida frequency relative to PBS controls: 73-83%
[4]; [10]
  Curly tail, % of total for treatment group: 65.4%
  Curly tail, number of fetuses: 17
  Normal, % of total for treatment group: 23.1%
  Normal, number of fetuses: 6
  Spina bifida ± curly tail, % of total for treatment group: 11.5%
  Spina bifida ± curly tail, number of fetuses: 3
[4]; [11]
  Curly tail, % of total for treatment group: 45.4%
  Curly tail, number of fetuses: 39
  Normal, % of total for treatment group: 52.3%
  Normal, number of fetuses: 45
  Spina bifida ± curly tail, % of total for treatment group: 2.3%
  Spina bifida ± curly tail, number of fetuses: 2
[4]; [12]
  Curly tail, % of total for treatment group: 46.5%
  Curly tail, number of fetuses: 46
  Normal, % of total for treatment group: 48.5%
  Normal, number of fetuses: 48
  Spina bifida ± curly tail, % of total for treatment group: 5.0%
  Spina bifida ± curly tail, number of fetuses: 5
[5]
  Curly tail, % of total for treatment group: 30.8%
  Curly tail, number of fetuses: 12
  No. uterine resorptions: 3
  No. viable fetuses: 39
  Normal, % of total for treatment group: 66.7%
  Normal, number of fetuses: 26
  Resorptions as % of total number of implantations: 7.1%
  Spina bifida ± curly tail, % of total for treatment group: 2.6%
  Spina bifida ± curly tail, number of fetuses: 1
  Mean litter size ± SEM: 6.50 ± 1.09
  Reduction in the frequency of spina bifida: 86%
  Effect on frequency of spina bifida among offspring: marked reduction in the frequency of spina bifida
  Likelihood of fetuses being normal vs PBS (ordinal multilevel regression): more likely to be normal
[7]
  Effect of insulin stimulation on incorporation into phospholipids: significant increase
[8]
  Reduction in plasma glucose level compared with exogenous myo-inositol: much larger reduction in plasma glucose level
[9]
  Effect on the action of insulin: increase the action of insulin

From patent US20020193379A1, “Compositions and methods for decreasing the risk of or preventing neural tube disorders in mammals” (Insmed Incorporated, priority 2001, published 2002)
